These results are taken from US20240277683A1, “COMPOUNDS” (CTXT PTY LTD, priority 2018, published 2024).

What all share (format): cell-based
Details in all cases: Homo sapiens

Assay [1] has as its system acetylation of the histone H3K23 marker in U2OS cells. The experiment in a line: Histone H3 Lysine 23 Acetylation Biomarker Assay. On the procedure: Compounds may be tested for their ability to inhibit acetylation of the histone H3K23 marker in the following assay:
The cell line U2OS was seeded at a density of 9,000 cells per well in 96 well optical quality tissue culture plates in RPMI medium and 10% foetal bovine serum, and allowed to adhere for 24 hours under standard culture conditions (37 degree Celsius, 5% CO2). At the end of this period the medium was aspirated. […] After incubation for 24 hours, the cells were fixed with 3.7% formaldehyde in PBS for 20 minutes at room temperature, washed (5×5 minutes) with phosphate buffer saline containing 0.1% Tween 20 and blocked with Odyssey blocking buffer (LI-COR, Lincoln, NE) containing 0.1% TritonX100. Anti-H3K23ac specific antibody (Abcam ab177275) in Odyssey blocking buffer containing 0.1% Tween 20 was added and incubated for 16 hours at 4 degree Celsius. […] Plates were washed as previously and read on a PerkinElmer Phenix high content imaging platform.

The test system of assay [2] is acetylation of the histone H3 Lysine 14 marker in U2OS cells. The experiment in a line: Histone H3 Lysine 14 Acetylation Biomarker Assay. On the procedure:
Compounds may be tested for their ability to inhibit acetylation of the histone H3 Lysine 14 marker in the following assay:
(§1) The cell line U2OS was seeded at a density of 3,000 cells per well in 384-well optical quality tissue culture plates in RPMI medium supplemented with 10% foetal bovine serum and 10 mM Hepes. The cells were allowed to adhere for 24 hours under standard culture conditions (37 degree Celsius, 5% CO2). At the end of this period the cells were washed with serum free medium. […] Plates were washed and read on a PerkinElmer Opera HCS high content imaging platform.

The subject of assay [3] is histone H2A.Z Lysine 7 acetylation marker in U2OS cells. Put plainly: H2A.Z Lysine 7 Acetylation Biomarker Assay. On the procedure:
Compounds may be tested for their ability to inhibit the histone H2A.Z Lysine 7 acetylation marker in the following assay:
as §1

Where [4] appears, read: H3K23ac, U2OS cells, 24 hours, read-out: IC50.
The mark [5] stands for this setting: H2A.ZK7ac, U2OS cells, serum free medium, 24 hours, read-out: IC50.

Read-outs that look alike come from different tables or passages of the source. Bounds are passed on as bounds.

A word on the IC50: it is the concentration that inhibits the measured activity by half. With `COc1ccccc1-c1cc(NS(=O)(=O)Cc2ccccc2)no1` [Example 2, N-(5-(2-Methoxyphenyl)isoxazol-3-yl)-1-phenylmethanesulfonamide], the IC50 in assay [1] (U2OS, 24 h) was > 10 µM.
The same measure, in the same setting: to `COc1ccccc1-c1cc(NS(=O)(=O)CCc2ccccc2)no1` [Example 4, N-(5-(2-Methoxyphenyl)isoxazol-3-yl)-2-phenylethane-1-sulfonamide] belongs > 10 µM.
Regarding `COc1ccccc1-c1cc(NS(=O)(=O)c2c(OC)ccc(-c3ccccc3)c2OC)no1` [Example 10, 2,4-Dimethoxy-N-(5-(2-methoxyphenyl)isoxazol-3-yl)-[1,1′-biphenyl]-3-sulfonamide], the IC50 is 4.14 µM in assay [2] (U2OS, 24 h) and > 40 µM in assay [3] (U2OS, 24 h).
The corresponding values for `COc1ccccc1-c1cc(NS(=O)(=O)c2c(OC)cc(-c3ccccc3)cc2OC)no1` [Example 11, 3,5-Dimethoxy-N-(5-(2-methoxyphenyl)isoxazol-3-yl)-[1,1′-biphenyl]-4-sulfonamide] are 2.74 µM and 5.32 µM.
Turning to `CCc1ccc(OC)c(S(=O)(=O)Nc2cc(-c3ccc(OC)cc3OC)on2)c1` [Example 12, N-(5-(2,4-Dimethoxyphenyl)isoxazol-3-yl)-5-ethyl-2-methoxybenzenesulfonamide], the IC50 in assay [2] (U2OS, 24 h) is > 40 µM; in assay [3] (U2OS, 24 h) it was > 40 µM.
In turn, `CCc1ccc(OC)c(S(=O)(=O)Nc2cc(-c3cccc(OC)c3)on2)c1` [Example 13, 5-Ethyl-2-methoxy-N-(5-(3-methoxyphenyl)isoxazol-3-yl)benzenesulfonamide] had an IC50 in assay [2] (U2OS, 24 h) of 22.4 µM.
As for `COc1ccc(CC2CCCCC2)cc1-c1cc(NS(=O)(=O)c2c(OC)cccc2OC)no1` [Example 19, N-(5-(5-(Cyclohexylmethyl)-2-methoxyphenyl)isoxazol-3-yl)-2,6-dimethoxybenzenesulfonamide], the IC50 in assay [1] (setting [4]) was > 10 µM; in assay [3] (setting [5]), 5.42 µM.
For the molecule `COc1cc(Cl)ccc1-c1cc(NS(=O)(=O)c2c(OC)cccc2OC)no1` [Example 21, N-(5-(4-Chloro-2-methoxyphenyl)isoxazol-3-yl)-2,6-dimethoxybenzenesulfonamide], the IC50 in assay [2] (H3K14ac, U2OS cells, serum free medium, 24 hours, read-out: IC50) was > 40 µM; in assay [3] (setting [5]) it was > 40 µM.
As for `COc1ccc(S(=O)(=O)Nc2cc(-c3ccccc3OC)on2)c(OC)c1` [Example 57, 2,4-Dimethoxy-N-(5-(2-methoxyphenyl)isoxazol-3-yl)benzenesulfonamide], the IC50 in assay [2] (U2OS, 24 h) was > 40 µM.
On to `COc1ccc(OC)c(-c2nnc(NS(=O)(=O)c3c(OC)cccc3OC)s2)c1` [Example 70, N-(5-(2,5-Dimethoxyphenyl)-1,3,4-thiadiazol-2-yl)-2,6-dimethoxybenzenesulfonamide], for which the IC50 in assay [1] (setting [4]) was 0.275 µM.
As for `COCc1ccc(OC)cc1-c1cc(NS(=O)(=O)c2c(OC)cccc2OC)no1` [Example 71, 2,6-Dimethoxy-N-(5-(5-methoxy-2-(methoxymethyl)phenyl)isoxazol-3-yl)benzenesulfonamide], the IC50 in assay [1] (setting [4]) worked out at 0.0693 µM.
For the molecule `COc1cccc(OC)c1S(=O)(=O)Nc1nnc(-c2cc(Cl)ccc2OC(C)C)s1` [Example 111, N-(5-(5-Chloro-2-isopropoxyphenyl)-1,3,4-thiadiazol-2-yl)-2,6-dimethoxybenzenesulfonamide], the IC50 in assay [1] (setting [4]) came out at 0.475 µM.
Same read-out and setting: then `COCc1ccc(OC)c(-c2cc(NS(=O)(=O)Cc3ccccc3)no2)c1` [Example 112, N-(5-(2-Methoxy-5-(methoxymethyl)phenyl)isoxazol-3-yl)-1-phenylmethanesulfonamide], with 0.187 µM.
In the case of `COc1ccccc1-c1cc(NS(=O)(=O)NC2CCCCC2)no1` [Example 117, N-Cyclohexyl((5-(2-methoxyphenyl)-1,2-oxazol-3-yl)amino)sulfonamide], in assay [1] (U2OS, 24 h), inhibition was half-maximal at 5.56 µM (IC50).
In the case of `COc1ccc(-c2ccnn2C)cc1-c1cc(NS(=O)(=O)c2c(OC)cccc2OC)no1` [Example 119, 2,6-Dimethoxy-N-(5-(2-methoxy-5-(1-methyl-1H-pyrazol-5-yl)phenyl)isoxazol-3-yl)benzenesulfonamide], in assay [1] (setting [4]), the IC50 stood at 0.634 µM.
